This is an account of results in publication PMC4200806, “A Combined Experimental and Computational Study of Vam3, a Derivative of Resveratrol, and Syk Interaction” (International Journal of Molecular Sciences, 2014).

This assay addresses Spleen tyrosine kinase (Syk) (Homo sapiens, UniProt P43405). The assay is described as follows: in vitro kinase assay with purified recombinant Syk (ADP-Glo, poly(Glu,Tyr) substrate); Ki from ATP-competition kinetics; IC50 […]. The class given is biochemical.

For orientation: Ki means a measure of affinity in units of concentration, obtained from inhibition or displacement. For the molecule `Oc1ccc(/C=C/c2cc(O)cc3oc(-c4ccc(O)cc4)c(-c4cc(O)cc(O)c4)c23)cc1` [Vam3], the inhibition constant (Ki) worked out at 61.1 nM.
